In patent publication US9850283B2, “Macrocyclic inhibitors of the PD-1/PD-L1 and CD80(B7-1)/PD-L1 protein/protein interactions” (BRISTOL-MYERS SQUIBB COMPANY, priority 2013, dated 2017):
Where two headings read alike, the source gives them in different places. Starred links: 1 amine or outer side, 2 acyl side, 3 side chain; linkers in the order of their positions; H or OH if unused. Positions of bridges follow the written chain, without caps; N, C: chain ends. Non-standard residues stand in square brackets, D forms with d. Residues, ends and D or L forms follow the SMILES beside them. ξ: configuration not given here. *: point of attachment. X7 = COc1ccc(-c2[nH]c3ccccc3c2C[C@H](N[*:1])C(=O)[*:2])cc1; Tyr(3,5-Br2) = N[C@@H](Cc1cc(Br)c(O)c(Br)c1)C(=O)O; Phe(3,4,5-F3) = N[C@@H](Cc1cc(F)c(F)c(F)c1)C(=O)O; Phe(3,4-F2) = N[C@@H](Cc1ccc(F)c(F)c1)C(=O)O; Bta = N[C@@H](Cc1csc2ccccc12)C(=O)O; Hyp = O=C(O)[C@@H]1C[C@@H](O)CN1; NMeF = CN[C@@H](Cc1ccccc1)C(=O)O; X4 = O=C([C@H]1COCCN1[*:1])[*:2]; dHyp = O=C(O)[C@H]1C[C@H](O)CN1; NMeNle = CCCC[C@H](NC)C(=O)O; NMeM = CN[C@@H](CCSC)C(=O)O; NMeS = CN[C@@H](CO)C(=O)O; dPip = O=C(O)[C@H]1CCCCN1; hSer = N[C@@H](CCO)C(=O)O; ξR = N=C(N)NCCCC(N)C(=O)O; NMeA = CN[C@@H](C)C(=O)O; Orn = NCCC[C@H](N)C(=O)O; Dab = NCC[C@H](N)C(=O)O; Dap = NC[C@H](N)C(=O)O; Bn = c1ccc(C*)cc1; ξC = NC(CS)C(=O)O; Sar = CNCC(=O)O

Assays:
[1] = biological target: T1, LK35.2-hPD-L1 cells / PE-labeled PD-1-Ig (Homo sapiens, UniProt Q9NZQ7); experiment: LK35.2-hPD-L1 cell binding high-content screening assay; type: cell-based; settings: cluster symbol, read-out: CBA IC50 cluster
T1 construct: expressed in transfected cells; host or cells: LK35.2 mouse B cell line
T1 sequence (Q9NZQ7 19-290): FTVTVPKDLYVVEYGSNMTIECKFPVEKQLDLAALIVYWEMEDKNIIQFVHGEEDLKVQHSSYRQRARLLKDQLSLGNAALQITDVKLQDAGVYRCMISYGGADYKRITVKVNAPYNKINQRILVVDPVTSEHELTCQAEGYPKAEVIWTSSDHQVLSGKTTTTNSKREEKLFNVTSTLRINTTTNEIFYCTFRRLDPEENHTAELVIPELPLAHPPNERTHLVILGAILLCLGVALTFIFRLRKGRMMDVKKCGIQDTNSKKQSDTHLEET
Summary of the method: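 Compound effect on PD-1/PD-L1 binding is measured by imaging cell-associated phycoerythrin signal. Human PD-1-Ig (PE on Ig tag, 1 nM final) is applied with compound to a murine B cell line overexpressing human PD-L1 for 1 h at 37 °C in serum-containing RPMI.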

Human PD-L1/PD-1 = biological target: T2, Human PD-L1/PD-1 (Homo sapiens, UniProt Q9NZQ7); experiment: HTRF PD-1-Ig/PD-L1-His binding assay (human PD-L1); settings: cluster symbol; read-out: HTRF IC50 cluster
T2 construct: made in house; host or cells: HEK293T
T2 sequence (Q9NZQ7 with tags, fused parts or gaps): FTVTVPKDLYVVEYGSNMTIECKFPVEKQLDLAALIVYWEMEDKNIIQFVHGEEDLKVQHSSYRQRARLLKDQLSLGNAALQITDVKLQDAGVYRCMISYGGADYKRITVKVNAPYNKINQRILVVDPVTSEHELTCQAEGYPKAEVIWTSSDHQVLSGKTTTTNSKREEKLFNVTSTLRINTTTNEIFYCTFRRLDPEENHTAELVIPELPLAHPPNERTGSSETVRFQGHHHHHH
Summary of the method: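 Soluble PD-1-Ig binding to PD-L1-His measured by HTRF in dPBS with 0.1% BSA and 0.05% Tween-20. Detection used europium cryptate anti-Ig antibody (1 nM final) and APC anti-His antibody (20 nM final) added on top of the binding reaction.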

[2] = cell line of CBA not given (LK35.2-hPD-L1 or 293T-hPD-L1)
[3] = cell binding assay, cell line not given

| SMILES | IC50 [1, 2] [nM] | IC50 (Human PD-L1/PD-1) [nM] | IC50 [1, 3] [nM] |
| --- | --- | --- | --- |
| CCCC[C@H]1C(=O)N(C)CC(=O)N[C@@H](CC(=O)O)C(=O)N[C@@H](C(C)C)C(=O)N(C)[C@@H](Cc2ccccc2)C(=O)N[C@@H](Cc2cc(Br)c(O)c(Br)c2)C(=O)N(C)CC(=O)N[C@@H](Cc2c[nH]c3ccccc23)C(=O)N[C@@H](Cc2ccc(O)cc2)C(=O)N[C@@H](CC(C)C)C(=O)N[C@H](C(=O)NCC(N)=O)CSCC(=O)N[C@@H](Cc2ccccc2)C(=O)N(C)[C@@H](Cc2ccccc2)C(=O)N1C [Example 3113] ({CH2CO}-F[NMeF][NMeNle][Sar]DV[NMeF][Tyr(3,5-Br2)][Sar]WYLCG-NH2; thioether N-13) | 4.78 to 72.9 | 6.76 to 30.3 |  |
| CCCC[C@H]1C(=O)N(C)[C@@H](CCCC)C(=O)N[C@@H](CCCN)C(=O)N[C@H](C(=O)NCC(N)=O)CSCC(=O)N[C@@H](Cc2ccc(O)cc2)C(=O)N(C)[C@@H](C)C(=O)N[C@@H](CC(N)=O)C(=O)N2CCC[C@H]2C(=O)N[C@@H](CN)C(=O)N[C@@H](CCC(N)=O)C(=O)N2C[C@H](O)C[C@H]2C(=O)N[C@@H](Cc2c[nH]c3ccccc23)C(=O)N[C@@H](CCN)C(=O)N[C@@H](Cc2csc3ccccc23)C(=O)N1C [Example 1195] ({CH2CO}-Y[NMeA]NP[Dap]Q[Hyp]W[Dab][Bta][NMeNle][NMeNle][Orn]CG-NH2; thioether N-14) | 0.158 to 4.71 | 0.385 to 6.74 |  |
| CCCC[C@H]1C(=O)N(C)[C@@H](CCSC)C(=O)N[C@@H](CCCNC(=N)N)C(=O)NC(C(=O)NCC(N)=O)CSCC(=O)N[C@@H](Cc2ccc(O)cc2)C(=O)N(C)[C@@H](C)C(=O)N[C@@H](CC(N)=O)C(=O)N2CCC[C@H]2C(=O)N[C@@H](Cc2cnc[nH]2)C(=O)N[C@@H](CC(C)C)C(=O)N2CCC[C@H]2C(=O)N[C@@H](Cc2c[nH]c3ccccc23)C(=O)N[C@@H](CO)C(=O)N[C@@H](Cc2c[nH]c3ccccc23)C(=O)N1C (stereo partly shown) [Example 9030] ({CH2CO}-Y[NMeA]NPHLPWSW[NMeNle][NMeM]R[ξC]G-NH2; thioether N-14) |  | 0.385 to 6.74 | 0.158 to 4.71 |
| CCCC[C@H]1C(=O)N(C)[C@@H](CCCC)C(=O)N[C@@H](CCCNC(=N)N)C(=O)N[C@H](C(=O)NCC(N)=O)CSCC(=O)N[C@@H](Cc2ccc(F)c(F)c2)C(=O)N(C)[C@@H](C)C(=O)N[C@@H](CC(N)=O)C(=O)N2CCC[C@H]2C(=O)N[C@@H](Cc2cnc[nH]2)C(=O)N[C@@H](CC(C)C)C(=O)N(C)CC(=O)N[C@@H](Cc2c[nH]c3ccccc23)C(=O)N[C@@H](CO)C(=O)N[C@@H](Cc2c[nH]c3ccccc23)C(=O)N1C [Example 1104] ({CH2CO}-[Phe(3,4-F2)][NMeA]NPHL[Sar]WSW[NMeNle][NMeNle]RCG-NH2; thioether N-14) | 4.78 to 72.9 | 6.76 to 30.3 |  |
| CCCC[C@H]1C(=O)N(C)[C@@H](CCCC)C(=O)NC(CCCNC(=N)N)C(=O)N[C@H](C(=O)NCC(N)=O)CSCC(=O)N[C@@H](Cc2ccc(O)cc2)C(=O)N(C)[C@@H](C)C(=O)N[C@@H](CC(N)=O)C(=O)N2CCC[C@H]2C(=O)N[C@@H](CN)C(=O)N[C@@H](CC(C)C)C(=O)N2CCC[C@H]2C(=O)N[C@@H](Cc2c[nH]c3ccccc23)C(=O)N[C@@H](CO)C(=O)N[C@@H](Cc2c(-c3ccc(OC)cc3)[nH]c3ccccc23)C(=O)N1C (stereo partly shown) [Example 7008] ({CH2CO}-Y[NMeA]NP[Dap]LPWS[X7][NMeNle][NMeNle][ξR]CG-NH2; thioether N-14) |  | 0.385 to 6.74 | 0.158 to 4.71 |
| CCCC[C@H]1C(=O)N(C)[C@@H](CCCC)C(=O)N[C@@H](CCCNC(=N)N)C(=O)NC(C(=O)NCC(N)=O)CSCC(=O)N[C@@H](Cc2ccc(O)cc2)C(=O)N(C)[C@@H](C)C(=O)N[C@@H](CC(N)=O)C(=O)N2CCC[C@H]2C(=O)N[C@@H](Cc2cnc[nH]2)C(=O)N[C@@H](CCO)C(=O)N2C[C@H](O)C[C@H]2C(=O)N[C@@H](Cc2c[nH]c3ccccc23)C(=O)N[C@@H](CO)C(=O)N[C@@H](Cc2csc3ccccc23)C(=O)N1C (stereo partly shown) [Example 9050] ({CH2CO}-Y[NMeA]NPH[hSer][Hyp]WS[Bta][NMeNle][NMeNle]R[ξC]G-NH2; thioether N-14) |  | 0.385 to 6.74 | > 74.3 |
| CCCC[C@H]1C(=O)N2C[C@@H](O)C[C@@H]2C(=O)N[C@@H](CC(N)=O)C(=O)N[C@@H](C(C)C)C(=O)N(C)[C@@H](Cc2ccccc2)C(=O)N[C@@H](Cc2ccc(O)cc2)C(=O)N2CCOC[C@@H]2C(=O)N[C@@H](Cc2c[nH]c3ccccc23)C(=O)N[C@@H](Cc2ccc(O)cc2)C(=O)N[C@@H](CCCN)C(=O)N[C@H](C(=O)NCC(N)=O)CSCC(=O)N[C@@H](Cc2cc(F)c(F)c(F)c2)C(=O)N(C)[C@@H](Cc2ccccc2)C(=O)N1C [Example 3606] ({CH2CO}-[Phe(3,4,5-F3)][NMeF][NMeNle][dHyp]NV[NMeF]Y[X4]WY[Orn]CG-NH2; thioether N-13) |  | 0.385 to 6.74 | 0.158 to 4.71 |
| CCCC[C@H]1C(=O)N(C)[C@@H](CCCC)C(=O)N[C@@H](CCCNC(=N)N)C(=O)N[C@H](C(=O)NCC(N)=O)CSCC(=O)N[C@@H](Cc2ccccc2)C(=O)N(C)[C@@H](C)C(=O)N[C@@H](CC(N)=O)C(=O)N2CCC[C@H]2C(=O)N[C@@H](CCN)C(=O)N[C@@H](CC(C)C)C(=O)N(C)CC(=O)N[C@@H](Cc2c[nH]c3ccccc23)C(=O)N[C@@H](CO)C(=O)N[C@@H](Cc2c[nH]c3ccccc23)C(=O)N1C [Example 1062] ({CH2CO}-F[NMeA]NP[Dab]L[Sar]WSW[NMeNle][NMeNle]RCG-NH2; thioether N-14) | 4.78 to 72.9 | 6.76 to 30.3 |  |
| CCCC[C@H]1C(=O)N(C)[C@@H](CCCC)C(=O)N[C@@H](CCCNC(=N)N)C(=O)N[C@H](C(=O)NCC(N)=O)CSCC(=O)N[C@@H](Cc2ccc(O)cc2)C(=O)N(C)[C@@H](CCC(=O)O)C(=O)N[C@@H](CC(N)=O)C(=O)N2CCC[C@H]2C(=O)N[C@@H](Cc2cnc[nH]2)C(=O)N[C@@H](CC(C)C)C(=O)N(C)CC(=O)N[C@@H](Cc2c[nH]c3ccccc23)C(=O)N[C@@H](CO)C(=O)N[C@@H](Cc2c[nH]c3ccccc23)C(=O)N1C [Example 1189] | > 74.3 | > 30.5 |  |
| CC(C)C[C@@H]1NC(=O)[C@H](Cc2ccc(O)cc2)NC(=O)[C@H](Cc2c[nH]c3ccccc23)NC(=O)CN(C)C(=O)[C@H](Cc2ccc(O)cc2)NC(=O)[C@H](Cc2ccccc2)N(C)C(=O)[C@H](C(C)C)NC(=O)[C@H](CC(=O)O)NC(=O)CN(C)C(=O)[C@H](CCC(=O)O)N(C)C(=O)[C@H](Cc2ccccc2)N(C)C(=O)[C@H](Cc2ccccc2)NC(=O)CSC[C@@H](C(=O)NCC(N)=O)NC1=O [Example 3061] (HELM PEPTIDE1{[O=C(C[*:3])[*:2]].F.[meF].[meE].[Sar].D.V.[meF].Y.[Sar].W.Y.L.C.G.[am]}$PEPTIDE1,PEPTIDE1,1:R3-14:R3$$$V2.0) | > 74.3 | 6.76 to 30.3 |  |
| CCCC[C@H]1C(=O)N(C)[C@@H](CCCC)C(=O)N[C@@H](CCCNC(=N)N)C(=O)NC(C(=O)NCC(N)=O)CSCC(=O)N[C@@H](Cc2ccc(O)cc2)C(=O)N(C)[C@@H](C)C(=O)N[C@@H](CC(N)=O)C(=O)N2CCC[C@H]2C(=O)N[C@@H](CO)C(=O)N[C@@H](CC(C)C)C(=O)N2CCC[C@H]2C(=O)N[C@@H](Cc2c[nH]c3ccccc23)C(=O)N[C@@H](CO)C(=O)N[C@@H](Cc2c[nH]c3ccccc23)C(=O)N1C (stereo partly shown) [Example 9073] ({CH2CO}-Y[NMeA]NPSLPWSW[NMeNle][NMeNle]R[ξC]G-NH2; thioether N-14) |  | 0.385 to 6.74 | 0.158 to 4.71 |
| CC(C)C[C@@H]1NC(=O)[C@H](Cc2cnc[nH]2)NC(=O)[C@@H]2CCCN2C(=O)[C@H](CC(N)=O)NC(=O)[C@H](C)N(C)C(=O)[C@H](Cc2ccccc2)NC(=O)CSC[C@@H](C(=O)NCC(N)=O)NC(=O)[C@H](CCCNC(=N)N)NC(=O)[C@H](COCc2ccccc2)N(C)C(=O)[C@H](C)N(C)C(=O)[C@H](Cc2c[nH]c3ccccc23)NC(=O)[C@H](CO)NC(=O)[C@H](Cc2c[nH]c3ccccc23)NC(=O)CN(C)C1=O [Example 6015] ({CH2CO}-F[NMeA]NPHL[Sar]WSW[NMeA][NMeS](Bn)RCG-NH2; thioether N-14) |  | > 30.5 | 4.78 to 72.9 |
| CCCC[C@H]1C(=O)N(C)[C@@H](CCCC)C(=O)N[C@@H](CCCNC(=N)N)C(=O)N[C@H](C(=O)NCC(N)=O)CSCC(=O)N[C@@H](Cc2ccc(O)cc2)C(=O)N(C)[C@@H](C)C(=O)N[C@@H](CCN)C(=O)N2CCC[C@H]2C(=O)N[C@@H](CO)C(=O)N[C@@H](CCC(=O)O)C(=O)N2C[C@H](O)C[C@H]2C(=O)N[C@@H](Cc2c[nH]c3ccccc23)C(=O)N[C@@H](CO)C(=O)N[C@@H](Cc2c[nH]c3ccccc23)C(=O)N1C [Example 5130] ({CH2CO}-Y[NMeA][Dab]PSE[Hyp]WSW[NMeNle][NMeNle]RCG-NH2; thioether N-14) |  | 6.76 to 30.3 | 0.158 to 4.71 |
| CCCC[C@H]1C(=O)N(C)CC(=O)N[C@@H](CC(=O)O)C(=O)N[C@@H](C(C)C)C(=O)N(C)[C@@H](Cc2ccccc2)C(=O)N[C@@H](Cc2ccc(O)cc2)C(=O)N2CCCC[C@@H]2C(=O)N[C@@H](Cc2c[nH]c3ccccc23)C(=O)N[C@@H](Cc2ccc(O)cc2)C(=O)N[C@@H](CC(C)C)C(=O)N[C@H](C(=O)NCC(N)=O)CSCC(=O)N[C@@H](Cc2ccccc2)C(=O)N(C)[C@@H](Cc2ccccc2)C(=O)N1C [Example 3572] ({CH2CO}-F[NMeF][NMeNle][Sar]DV[NMeF]Y[dPip]WYLCG-NH2; thioether N-13) |  | 0.385 to 6.74 | 0.158 to 4.71 |
